Source: publication PMC12040169 (PLOS Biology, 2025)

Assay: in vitro
Conditions: human, hela cells, % viability

Point of comparison: Cn1ncc2c1NC(=O)CC2c1c[nH]nc1-c1ccccc1 (centres unmarked) [CBK287941], viability at 28.5 h, 10 µM 99.5%. Against it:
- Cc1ccc(C2=CCN(CC(=O)Nc3ccc(N(C)C)cc3)CC2)o1 [CBK283604] — lower, 95.5%
- CN1C[C@@H](NS(=O)(=O)c2ccc(C#N)cc2)C[C@H]1c1nc(-c2ccncc2)no1 [CBK288871] — lower, 86.9%
- N#CCCN(C1CCCCC1)S(=O)(=O)c1cccc2nsnc12 [CBK009093] — lower, 94%
- OCCN1CSC(=S)N(CCc2ccc(Cl)cc2)C1 [CBK015713] — higher, 122%
- O=C(CCn1c(C(F)(F)F)cc2cccnc21)NCc1ccncc1 [CBK284841] — lower, 90.5%
- O=C(NCCc1c[nH]cn1)N1CCN(c2ccc(F)cc2)CC1 [CBK156394] — lower, 85.1%
- CC(C)(CSc1nnc(Nc2ccccc2)s1)NS(=O)(=O)c1ccc(Cl)cc1 [CBK266388] — higher, 108%
- CC(C)[C@@H](CO)n1c(=O)[nH]c2ncc(-c3ccco3)nc21 [CBK065018] — higher, 106%
- Cc1cnc(C)c(N2CCN(C(=O)NCCSc3nncn3C)CC2)n1 [CBK306531] — lower, 92.9%
- Fc1ccc(Oc2nccnc2N2CCN(Cc3cccnc3)CC2)cc1 [CBK083011] — lower, 87.5%
- COc1cc(/C(CS(C)(=O)=O)=N\O)cc(OC)c1OC [CBK022984] — lower, 83.8%
- CCCn1cnnc1CN(C)C(=O)NCCc1nc2ccccc2s1 [CBK307663] — lower, 98.2%
- CCCc1cc(=O)[nH]c(SCc2noc(-c3snnc3C)n2)n1 [CBK006474] — lower, 87.4%
- O=C(CSc1nnc(-c2ccc(Cl)cc2)n1-c1ccccc1)N/N=C/c1ccccn1 [CBK263001] — lower, 94.6%
- O=C(CSc1nnc2ccc(-c3ccccc3)nn12)N1CCCCC1 [CBK287678] — higher, 100%
- CN(C)S(=O)(=O)c1ccc(Cl)c(C(=O)Nc2cccc(O)c2)c1 [CBK265723] — higher, 113%
- c1ccc(-c2ccc(-c3cc(N4CCN(CCN5CCCC5)CC4)ncn3)cc2)cc1 [CBK091165] — lower, 99%
- CCNC(=O)O[C@@H]1CO[C@H]2[C@@H]1OC[C@@H]2NS(=O)(=O)c1ccccc1C#N [CBK289474] — lower, 87.6%
- CCN(CC)c1c(C)nc2ccc(C(=O)N3CCN(C)CC3)cn12 [CBK145955] — lower, 91.5%
- CC(C)Nc1nc(-c2cccnc2)cn2ccnc12 [CBK093608] — lower, 96.6%
- OC(COCc1ccc(Cl)cc1)CN1CCN(c2cccc(Cl)c2)CC1 (centres unmarked) [CBK278315C] — lower, 87.9%
- O=C(NCCn1cccn1)N1CCC(Cc2ccc(F)cc2)CC1 [CBK304381] — lower, 91.7%
- Cc1cc(Cl)c(S(=O)(=O)Nc2cccnc2)cc1OCC(=O)NC1CCCCC1 [CBK266773] — lower, 92.7%
- CC(C)[C@H]1CN(Cc2ccco2)CCN1C(=O)NCc1ccccc1 [CBK284274] — higher, 99.6%
- O=C(CSc1nnc(-c2ccncc2)n1C1CCCCC1)Nc1ncc2c(n1)CC(c1ccccc1)CC2=O (centres unmarked) [CBK266177] — lower, 94.3%
- COc1ccccc1OCCOc1c(Cl)cc(/C=C2\SC(=S)NC2=O)cc1Cl [CBK264848] — lower, 93.9%
- O=C(COc1ccccc1)C(C(=O)c1ccccc1)=C1Nc2ccccc2N1 [CBK263725] — lower, 97.8%
- CC(=O)C(C)Oc1ncn(-c2ccccc2)n1 (centres unmarked) [CBK008377] — higher, 101%
- O=C(Cc1ccccc1)N1CCN(S(=O)(=O)N2CCOCC2)CC1 [CBK268857] — higher, 108%
- CSc1cccc(NC(=O)Nc2ccc3c(c2)OCCO3)c1 [CBK300527] — higher, 104%
- Cn1c(=O)c2c(ncn2Cc2ccc(C#N)cc2)n(C)c1=O [CBK134217] — higher, 106%
- Cc1ccc(-c2ccc(N3CCN(C(=O)c4ccco4)CC3)nc2)cc1C [CBK037775] — higher, 106%
- CCN(CC)C(=O)c1ccc2[nH]ccc2c1 [CBK149072] — lower, 97.1%
- O=C(Nc1cccc(C(F)(F)F)c1)N1CCC(n2c(=O)[nH]c3ccccc32)CC1 [CBK149845] — lower, 84.6%
